# Laboratory results published in patent US8476305B2, “Therapeutic agent or prophylactic agent for inflammatory bowel disease comprising amino alcohol derivative as active ingredient” (Kyorin Pharmaceutical Co., Ltd., priority 2008, dated 2013).
# Test system: SCID CD4+ CD45RBhigh T cell transfer colitis model
# Test: SCID CD4+ CD45RBhigh T cell transfer colitis model
# Assay type: in vivo, SCID mice
# Conditions: for Total number of leukocytes (cells/μL): blood on the day after final administration; for Total number of leukocytes (cells/μL) / Change ratio of body weight (%) On the fourth week / Change ratio of body weight (%) On the third week: mean ± standard error
# Description: SCID CD4^+ CD45RB^high T cell transfer colitis model has been reported as a model resembling to Crohn's disease due to its histopathological characteristics and the produced cytokines (Powrie F et al, Immunity, 1, 553-562, 1994). In addition, this model has also been used for evaluation of a medicine which is used in the treatment of inflammatory bowel disease and its effectiveness has been reported (Liu Z et al., J. Autoimmunl., 29, 187-194, 2007).
# C.B-17/Icr-scid/scid Jcl (SCID mice) (female, 8 weeks of age, mouse to be transferred) and BALB/c Cr Slc (BALB/c mice) (female, 8 weeks of age, mouse for transfer cell preparation) were obtained and used in the test. CD4^+ CD45RB^high T cells (naive T cells) prepared from the spleen of BALB/c mice were transferred intraperitoneally into the SCID mice at a concentration of 3×10^5 cells/body, and then colitis was induced by breeding it for 4 weeks. Preparation of the CD4^+ CD45RB^high T cells was carried out in accordance with the method of Uraushihara et al. (J. Immunol., 171, 708-716, 2003) and FACSAriaCell Sorter (Becton Dickinson Japan) was used as a cell separator.
# The compound produced in Example 27 (compound 27) was dissolved in distilled water and orally administered at doses of 0.3 mg/kg, 1 mg/kg and 3 mg/kg, once a day for 4 weeks starting on the preceding day of cell transfer. Distilled water alone was administered to the vehicle group. Body weight was determined every day during the administration period. The change ratio (%) of the body weight on the determination day was calculated based on the body weight on the day of the start of administration. On the next day of final administration, blood was collected and the large intestine was extracted. The total number of leukocytes was measured using the collected blood. After fixing the extracted large intestine with formalin, tissue sections were prepared and hematoxylin-eosin staining was carried out. Evaluation was performed in accordance with the scoring system (Uraushihara K et al., J. Immunol., 171, 708-716, 2003). That is, the large intestine was roughly divided into 3 regions (proximal region, middle region and distal region), and scoring was carried out on the 3 layers, which are mucosa, submucosa and muscularis, of each region. By totaling the obtained scores of each region, the value having the highest total score among the three regions was used as the score of the individual. The change ratio of the body weight and the total number of leukocytes were shown by mean±standard error and the pathological score was shown by median.
# [1] = 0.3 mg/kg orally once a day for 4 weeks
# [2] = 1 mg/kg orally once a day for 4 weeks
# [3] = 3 mg/kg orally once a day for 4 weeks
# [4] = in comparison with the vehicle group, result in words
structure (smiles),measurement,setting,value
"C[C@](N)(CO)CCCc1ccc(Sc2cccc(C(F)(F)F)c2)cc1Cl.Cl [Compound 27, (R)-2-amino-5-[2-chloro-4-(3-trifluoromethylphenylthio)phenyl]-2-methylpentan-1-ol hydrochloride]",Total number of leukocytes (cells/μL),[1],2733 ± 561 cells/μL
same,Change ratio of body weight (%) On the fourth week,[1],−1.0 ± 2.2%
same,Pathological score,"0.3 mg/kg orally once a day for 4 weeks, large intestine histology, median",5
same,Change ratio of body weight (%) On the third week,[1],1.1 ± 1.4 %
same,Total number of leukocytes (cells/μL),[2],1980 ± 241 cells/μL
same,Change ratio of body weight (%) On the fourth week,[2],−1.4 ± 2.0%
same,Pathological score,"1 mg/kg orally once a day for 4 weeks, large intestine histology, median",5
same,Change ratio of body weight (%) On the third week,[2],1.5 ± 0.8 %
same,Total number of leukocytes (cells/μL),[3],1720 ± 327 cells/μL
same,Change ratio of body weight (%) On the fourth week,[3],−0.8 ± 2.0 %
same,Pathological score,"3 mg/kg orally once a day for 4 weeks, large intestine histology, median",3.5
same,Change ratio of body weight (%) On the third week,[3],0.5 ± 1.2 %
same,body weight loss,[4],significantly suppressed
same,total number of leukocytes,[4],significantly suppressed
same,effect on the SCID CD4+ CD45RBhigh T cell transfer colitis model,overall conclusion in words,shows the suppressive effect
same,Pathological score,result in words,suppressive effect was found
